What is called Ki is the dissociation constant of the complex between target and ligand, obtained from inhibition or displacement.

“And” between values parts separate entries of the source, which are not always exact repeats. Identical values can stand only once.

These results are taken from paper PMC9574929, “Development of Hydrogen Sulfide-Releasing Carbonic Anhydrases IX- and XII-Selective Inhibitors with Enhanced Antihyperalgesic Action in a Rat Model of Arthritis” (Journal of Medicinal Chemistry, 2022).

In data set [1] the target is T1, hCA IX (Homo sapiens, UniProt Q16790). The arrangement: made in house; method as in Bonardi et al. [29,30]. Particulars: stopped-flow CO2 hydrase assay; Table S1 footnote b; ref Bonardi et al. [29,30]; cited from earlier work.
Data set [2] concerns the target T1, hCA IX. In words: Stopped-flow CO2 hydrase assay, hCA IX. The note with it: selectivity index, ratio of KIs.
Description: (§3) The uncatalyzed rates were determined in the same manner and subtracted from the total observed rates. Stock solutions of inhibitor (0.1 mM) were prepared in distilled-deionized water and dilutions up to 0.01 nM were done thereafter with the assay buffer. […] The inhibition constants were obtained by nonlinear least-squares methods using PRISM 3 and the Cheng–Prusoff equation, as reported earlier,[39] and represent the mean from at least three different determinations.
Data set [3] deals with hCA II (Homo sapiens, UniProt P00918). Nature of the data set: Stopped-flow CO2 hydrase assay, hCA II. The note with it: for SI CA I/II: selectivity index, ratio of KIs.
Description: as §3
The target of data set [4] is hCA IV (Homo sapiens, UniProt P22748). In words: Stopped-flow CO2 hydrase assay, hCA IV. The note with it: for SI CA I/IV / SI CA II/IV: selectivity index, ratio of KIs.
Chain of hCA IV (P22748 19-312): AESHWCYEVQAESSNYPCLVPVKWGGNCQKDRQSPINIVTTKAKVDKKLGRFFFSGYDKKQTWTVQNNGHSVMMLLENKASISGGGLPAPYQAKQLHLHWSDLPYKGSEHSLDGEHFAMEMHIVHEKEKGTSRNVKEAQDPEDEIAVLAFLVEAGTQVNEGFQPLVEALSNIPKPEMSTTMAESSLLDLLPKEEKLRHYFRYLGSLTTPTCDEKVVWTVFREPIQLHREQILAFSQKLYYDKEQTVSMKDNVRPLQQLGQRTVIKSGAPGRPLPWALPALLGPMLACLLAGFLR
Description: as §3
The target of data set [5] is hCA XII (Homo sapiens, UniProt O43570). Nature of the data set: Stopped-flow CO2 hydrase assay, hCA XII. Particulars: for SI CA I/XII / SI CA II/XII: selectivity index, ratio of KIs.
Chain of hCA XII (O43570 25-354): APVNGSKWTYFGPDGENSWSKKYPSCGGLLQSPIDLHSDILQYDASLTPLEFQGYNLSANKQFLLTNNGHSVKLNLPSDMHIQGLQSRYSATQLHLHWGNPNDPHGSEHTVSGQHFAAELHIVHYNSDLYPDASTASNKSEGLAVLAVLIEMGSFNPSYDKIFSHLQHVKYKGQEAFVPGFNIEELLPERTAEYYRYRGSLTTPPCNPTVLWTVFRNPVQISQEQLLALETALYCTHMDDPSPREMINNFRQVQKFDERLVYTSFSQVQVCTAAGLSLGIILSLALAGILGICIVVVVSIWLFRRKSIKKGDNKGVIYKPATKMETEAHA
Description: as §3
Data set [6] has as its system rat model of arthritis induced by the intra-articular injection of complete Freund's adjuvant (CFA). Nature of the data set: Incapacitance test, CFA-induced arthritis. The format is in vivo. Particulars: for reduction of spontaneous pain, Incapacitance test: single per os, 1 to 30 mg/kg, day 14 after CFA. The method, then: (§1) Articular damage was induced by injection of Complete Freund’s Adjuvant (CFA; Sigma-Aldrich, St Louis, MO, USA), containing 1 mg/mL of heat-killed and dried Mycobacterium tuberculosis in paraffin oil and mannide monooleate, into the tibiotarsal joint.[50] Briefly, the rats were lightly anesthetized with 2% isoflurane, the left leg skin was sterilized with 75% ethyl alcohol, and the lateral malleolus was located by palpation. A 28-gauge needle was then inserted vertically to penetrate the skin and turned distally for insertion into the articular cavity at the gap between the tibiofibular and tarsal bone until a distinct loss of resistance was felt. A volume of 50 μL of CFA was then injected (day 0). Control rats received 50 μL of saline solution (day 0) in the tibiotarsal joint.
(§2) The hybrid derivatives 26, 29, 30, and 31 (1, 10, and 30 mg/kg) were suspended in a 1% solution of carboxymethylcellulose (CMC) sodium salt and acutely per os administered starting from day 14 after CFA i.a. injection, when arthritis was well established. The H2S releaser 3 and CAI 15 were also administered alone or in coadministration at the equimolar dose of compound 30 30 mg/kg (13.23 and 17.71 mg/kg, respectively). The antihypersensitivity effects were evaluated over time by the Paw pressure and Incapacitance tests.
Weight-bearing changes were measured using an incapacitance apparatus (Linton Instrumentation, Norfolk, U.K.) to detect changes in postural equilibrium after a hind limb injury.[53],[54] Rats were trained to stand on their hind paws in a box with an inclined plane (65° from horizontal). This box was placed above the incapacitance apparatus. This allowed us to independently measure the weight that the animal applied on each hind limb. The value reported for each animal is the mean of five consecutive measurements. In the absence of hind limb injury, rats applied an equal weight on both hind limbs, indicating postural equilibrium, whereas an unequal distribution of weight on the hind limbs indicated a monolateral decreased pain threshold. Data are expressed as the difference between the weight applied to the limb contralateral to the injury and the weight applied to the ipsilateral limb (Δ weight).

Data set [7] shares this test system. In words: Paw pressure test, CFA-induced arthritis. The format is in vivo. The note with it: for antihyperalgesic effect, Paw pressure test, 1 mg/kg: 1 mg/kg per os; for weight tolerated on the ipsilateral paw, Paw pressure test, 10 and 30 mg/kg: 10 and 30 mg/kg per os, from 15 min up to 45 min after treatment, vs CFA-treated animals. How it is done:
as §1, §2
The nociceptive threshold of rats was determined with an analgesimeter (Ugo Basile, Varese, Italy), according to the method described by Leighton et al.[51] and Maresca et al.,[52] (doi: 10.1111/jphp.12828). Briefly, a constantly increasing pressure was applied to a small area of the dorsal surface of the hind paw using a blunt conical probe by a mechanical device. Mechanical pressure was increased until vocalization or a withdrawal reflex occurred while rats were lightly restrained. Vocalization or withdrawal reflex thresholds were expressed in grams. […]

Data set [8] deals with hCA I (Homo sapiens, UniProt P00915). Nature of the data set: Stopped-flow CO2 hydrase assay, hCA I.
Chain of hCA I (P00915 whole entry): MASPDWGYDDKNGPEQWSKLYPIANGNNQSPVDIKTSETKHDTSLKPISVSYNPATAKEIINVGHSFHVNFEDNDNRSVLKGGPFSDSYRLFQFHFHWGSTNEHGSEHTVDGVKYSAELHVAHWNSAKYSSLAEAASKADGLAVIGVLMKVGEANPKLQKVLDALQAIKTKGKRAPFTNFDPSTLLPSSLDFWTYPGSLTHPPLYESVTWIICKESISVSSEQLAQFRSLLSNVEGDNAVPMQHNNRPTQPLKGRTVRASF
Description: as §3
Data set [9] has as its system rats. In words: Toxicity and Irwin test. The format is in vivo, rat. The arrangement: key to Irwin test: Spontaneous activity / Irwin test: Straightening reflex / Irwin test: Hypo-hyperthermia / Irwin test: Cleaning / Irwin test: Curiosity / Irwin test: Reactivity / Irwin test: Convulsions: observer's semiquantitative score (0 to +4, −4 to 0, or −4 to +4). Particulars: 30 mg/kg; for Irwin test: Cyanosis / Irwin test: Exolphthalmos / Irwin test: Flush / Irwin test: Lacrimation / Irwin test: Pallor / Irwin test: Piloerection / Irwin test: Salivation / Irwin test: Writhing / Irwin test: Palpebral opening / Irwin test: Hypo-hyperthermia: Autonomic signes; for Irwin test: Cyanosis / Irwin test: Exolphthalmos / Irwin test: Flush / Irwin test: Lacrimation / Irwin test: Pallor / Irwin test: Piloerection / Irwin test: Salivation / Irwin test: Writhing / Irwin test: Passivity / Irwin test: Vocalization / Irwin test: Ataxia / Irwin test: Stereotipies / Irwin test: Straub tail / Irwin test: Tremors / Irwin test: Delayed death (48 h) / Irwin test: Immediate death: limits 0 - 4; for Irwin test: Palpebral opening / Irwin test: Cleaning / Irwin test: Curiosity / Irwin test: Reactivity / Irwin test: Spontaneous activity / Irwin test: Straightening reflex / Irwin test: Palpebral reflex / Irwin test: Convulsions: limits 4 - 0; for Irwin test: Hypo-hyperthermia: limits -4/+4; for Irwin test: Passivity / Irwin test: Vocalization / Irwin test: Cleaning / Irwin test: Curiosity / Irwin test: Reactivity / Irwin test: Spontaneous activity: Behaviour; for Irwin test: Ataxia / Irwin test: Stereotipies / Irwin test: Straightening reflex: Movement; for Irwin test: Physical strenght: Muscolar tone, limits 4 – 0; for Irwin test: Palpebral reflex: Reflexes; for Irwin test: Straub tail / Irwin test: Tremors / Irwin test: Convulsions: S.N.C. excitement; for Irwin test: Delayed death (48 h) / Irwin test: Immediate death: Toxicity. The method, then:
Toxicity was evaluated after a single acute administration of 26, 29, 30, and 31 at 30 mg/kg. […] For the Irwin test, each rat was individually placed in a transparent cage (26 × 41 cm), and 26 neurobehavioral or physiological parameters were systematically assessed according to Irwin (1968)[55] and already reported by Berrino and colleagues in similar studies.[30] Behavioral, autonomic, and neurological manifestations produced by compound administration in rats were evaluated: motor displacement, motor reflexes, stereotypies, grooming, reaction to painful or environmental stimuli (analgesia and irritability), startle response, secretions, excretions, respiratory movements, skin color and temperature, piloerection, exophthalmos, eyelid and corneal reflexes, muscle tone, ataxia, tremors, head twitches, jumps, convulsions, Straub tail, and other signs or symptoms. For postural reflexes (righting reflex) and other signs such as piloerection, exophthalmia (exaggerated protrusion of the eyeball), ataxia, tremors, and Straub tail, only presence or absence was recorded. Skin color was evaluated qualitatively (pale, red, or purple); other signs were evaluated semiquantitatively, according to the observer’s personal scale (0 to +4, −4 to 0, or −4 to +4). The terms sedation and excitation express the final interpretation of a group of signs: reduced motor activity, reduced startle response, eyelid ptosis, and reduced response to manual manipulation, for the former; and increased motor activity, increased startle response, increased response to manual manipulation, and exophthalmia, for the latter. Hyperactivity includes running, jumping, and attempting to escape from the container. Trained observers were not informed about the specific treatment of each animal group carried out in this test.
Background: An intraperitoneal irritant provokes the stretching counted in writhing tests.

[10] abbreviates: per os, 3 13.23 mg/kg, 15 17.71 mg/kg.

Regarding `NS(=O)(=O)c1ccc(CCNCc2ccccc2)cc1` [Compound 4, 4-(2-(Benzylamino)ethyl)benzenesulfonamide], the Ki in data set [1] is 78.1 nM.
For the molecule `NS(=O)(=O)c1ccc(CCNCc2ccc(F)cc2)cc1` [Compound 5, 4-(2-((4-Fluorobenzyl)amino)ethyl)benzenesulfonamide], in data set [2], the “SI CA I/IX” value is recorded as 2.0 and the “SI CA II/IX” value is 1.4. The “SI CA I/II” value in data set [3] came to 1.4. In data set [4], the “SI CA I/IV” value was found to be 0.09 and the “SI CA II/IV” value worked out at 0.06. Further, in [5], the “SI CA I/XII” value came to 1.9 and the “SI CA II/XII” value was 1.3. Further, the Ki in data set [1] is 56.5 nM.
Turning to `NS(=O)(=O)c1ccc(CCNCc2cccc3ccccc23)cc1` [Compound 15, 4-(2-((Naphthalen-1-ylmethyl)amino)ethyl)benzenesulfonamide], in [2], the “SI CA I/IX” value is given as 5.8 and the “SI CA II/IX” value stood at 4.0. For the same molecule, the “antihyperalgesic effect, Incapacitance test, dose equimolar to 30 30 mg/kg” value in data set [6] (setting [10]) was “absence of effects detected in vivo”. In [3], the affinity corresponds to a Ki of 178 nM and the “SI CA I/II” value was determined as 1.5. Further, the “antihyperalgesic effect, Paw pressure test, dose equimolar to 30 30 mg/kg” value in data set [7] (setting [10]) was “very weak antihyperalgesic action”. In [4], the affinity corresponds to a Ki of 3010 nM and the “SI CA II/IV” value worked out at 0.06. For the same molecule, in data set [5], the Ki came out at 54.7 nM, the “SI CA I/XII” value was 4.8 and the “SI CA II/XII” value is recorded as 3.2. In data set [8], this molecule came in with a Ki of 261 nM.
For `NS(=O)(=O)c1ccc(CCN(Cc2cccc3ccccc23)C(=O)c2ccc(-c3cssc3=S)cc2)cc1` [Compound 30, N-(Naphthalen-1-ylmethyl)-N-(4-sulfamoylphenethyl)-4-(3-thioxo-3H-1,2-dithiol-4-yl)benzamide], in data set [2], the “SI CA I/IX” value was above 641 and the “SI CA II/IX” value was determined as 286. In addition, the “effect of the lowest dose, Incapacitance test” value in data set [6] (1 mg/kg per os) is “ineffective”. Also, the “reduction of spontaneous pain, Incapacitance test” value in data set [6] is recorded as “slightly greater efficacy at 10 mg/kg in comparison to the dose of 30 mg/kg”. Besides, in data set [9], the “Irwin test: Cyanosis” value is listed as 0, the “Irwin test: Exolphthalmos” value stood at 0, the “Irwin test: Flush” value was 0 and the “Irwin test: Lacrimation” value came out at 0. Besides, in data set [9], the “Irwin test: Pallor” value was 0, the “Irwin test: Piloerection” value turned out to be 0, the “Irwin test: Salivation” value came to 0 and the “Irwin test: Writhing” value is reported as 0. Besides, in data set [9], the “Irwin test: Palpebral opening” value turned out to be 4, the “Irwin test: Hypo-hyperthermia” value amounted to 0, the “Irwin test: Passivity” value stood at 0 and the “Irwin test: Vocalization” value is listed as 0. Further, in data set [9], the “Irwin test: Cleaning” value was found to be 0, the “Irwin test: Curiosity” value is given as 4, the “Irwin test: Reactivity” value came to 4 and the “Irwin test: Spontaneous activity” value turned out to be 4. In addition, in [9], the “Irwin test: Ataxia” value is recorded as 0, the “Irwin test: Stereotipies” value worked out at 0, the “Irwin test: Straightening reflex” value stood at 4 and the “Irwin test: Physical strenght” value amounted to 4. In data set [9], the “Irwin test: Palpebral reflex” value was determined as 4, the “Irwin test: Straub tail” value is recorded as 0, the “Irwin test: Tremors” value came out at 0 and the “Irwin test: Convulsions” value is listed as 0. In data set [9], the “Irwin test: Delayed death (48 h)” value is given as 0 and the “Irwin test: Immediate death” value is reported as 0. In data set [7], the “antihyperalgesic effect, Paw pressure test, 1 mg/kg” value is recorded as “ineffective”; the “weight tolerated on the ipsilateral paw, Paw pressure test, 10 and 30 mg/kg” value was “significantly increased the weight tolerated”. Also, the “antihyperalgesic effect, Paw pressure test, 30 mg/kg” value in data set [7] (30 mg/kg per os, day 14 after CFA) was “greater antihyperalgesic action with respect to 3, 15, and their co-administration”. Further, in [4], the “SI CA I/IV” value is above 41.0 and the “SI CA II/IV” value is recorded as 18.3. Besides, in data set [5], the “SI CA I/XII” value is reported as above 1428 and the “SI CA II/XII” value was 637.
On to `NS(=O)(=O)c1ccc(CCN(Cc2csc3ccccc23)C(=O)c2ccc(-c3cssc3=S)cc2)cc1` [Compound 31, N-(Benzo[b]thiophen-3-ylmethyl)-N-(4-sulfamoylphenethyl)-4-(3-thioxo-3H-1,2-dithiol-4-yl)benzamide], for which the “SI CA I/IX” value in data set [2] was above 4167. Also, the “reduction of spontaneous pain, Incapacitance test” value in data set [6] was “reduced spontaneous pain in a dose-dependent manner”. Also, in data set [9], the “Irwin test: Cyanosis” value was 0, the “Irwin test: Exolphthalmos” value amounted to 0, the “Irwin test: Flush” value was determined as 0 and the “Irwin test: Lacrimation” value is recorded as 0. In [9], the “Irwin test: Pallor” value came to 0, the “Irwin test: Piloerection” value is on record as 0, the “Irwin test: Salivation” value was 0 and the “Irwin test: Writhing” value was determined as 0. In data set [9], the “Irwin test: Palpebral opening” value was determined as 4, the “Irwin test: Hypo-hyperthermia” value is reported as 0, the “Irwin test: Passivity” value amounted to 0 and the “Irwin test: Vocalization” value is recorded as 0. Besides, in [9], the “Irwin test: Cleaning” value is 0, the “Irwin test: Curiosity” value is recorded as 4, the “Irwin test: Reactivity” value amounted to 4 and the “Irwin test: Spontaneous activity” value was 4. In addition, in [9], the “Irwin test: Ataxia” value is on record as 0, the “Irwin test: Stereotipies” value is given as 0, the “Irwin test: Straightening reflex” value is listed as 4 and the “Irwin test: Physical strenght” value worked out at 4. In addition, in data set [9], the “Irwin test: Palpebral reflex” value is 4, the “Irwin test: Straub tail” value was found to be 0, the “Irwin test: Tremors” value is on record as 0 and the “Irwin test: Convulsions” value is 0. Besides, in data set [9], the “Irwin test: Delayed death (48 h)” value stood at 0 and the “Irwin test: Immediate death” value stood at 0. Further, in [7], the “antihyperalgesic effect, Paw pressure test, 1 mg/kg” value is recorded as “ineffective”; the “weight tolerated on the ipsilateral paw, Paw pressure test, 10 and 30 mg/kg” value is recorded as “significantly increased the weight tolerated”. For the same molecule, in [4], the “SI CA I/IV” value is above 208; the “SI CA II/IV” value was 52 and 51.7. In [5], the “SI CA I/XII” value is above 1204 and the “SI CA II/XII” value came to 299.
